system: windgrass; assay: Test Example 4: herbicidal effect by soil treatment (Table 19, symbol L); assay type: in vivo, windgrass (Apera spica-venti); settings: amount of applied herbicide 320 g/ha
How it was run: (§1)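 Soil-surface application: an emulsion agent diluted with water to the predetermined dose is sprayed uniformly over seeds lying under roughly 1.5 cm of sterilized diluvial soil. Boxes stay in a greenhouse at 25° C. to 30° C. Three weeks later, each species is graded on previously defined criteria.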

SMILES	herbicidal effect rating, L: windgrass
COc1ccc(F)cc1-c1sc2ccccc2c1-c1c(O)c(C)nn(C)c1=O [1-058]	0 (Herbicidal rate of 5% or less (almost no effect))

system: velvetleaf; assay: Test Example 5: herbicidal effect by foliage application, plastic box (Table 20, symbol M); assay type: in vivo, velvetleaf (Abutilon theophrasti); settings: foliage application, 320 g/ha, three weeks after application
How it was run: (§2)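 Sow seeds spot-wise in sterilized diluvial soil; cover with ~1.5 cm soil. Grow 14 days in greenhouse, 25° C. to 30° C. Spray foliage with emulsion diluted to predetermined amount. Rate effect after 3 weeks.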

SMILES	herbicidal effect grade, M: velvetleaf
COc1ccc(F)cc1-c1sc2ccccc2c1-c1c(O)c(C)nn(C)c1=O [1-058]	1 (Herbicidal rate of 5% or more and less than 20%)

system: velvetleaf; assay: Test Example 4: herbicidal effect by soil treatment (Table 19, symbol M); assay type: in vivo, velvetleaf (Abutilon theophrasti); settings: amount of applied herbicide 320 g/ha
How it was run: as §1

SMILES	herbicidal effect rating, M: velvetleaf
COc1ccc(F)cc1-c1sc2ccccc2c1-c1c(O)c(C)nn(C)c1=O [1-058]	0 (Herbicidal rate of 5% or less (almost no effect))

system: Chinese sprangletop; assay: Test Example 3: herbicidal effect by foliage application, Wagner pot (Table 18, symbol D); assay type: in vivo, chinese sprangletop (Leptochloa chinensis); settings: 320 g/ha
How it was run: (§3)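 Plants were sown in alluvial soil held under 0.1–0.5 cm standing water and grown 14 days in a greenhouse at 25–30 °C. An emulsifiable formulation, water-diluted to the set dose, was then sprayed onto the foliage, and effects were scored three weeks later using previously defined criteria.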

SMILES	herbicidal effect on D (Chinese sprangletop), rating 0-5
COc1ccc(F)cc1-c1sc2ccccc2c1-c1c(O)c(C)nn(C)c1=O [1-058]	3 (Herbicidal rate of 40% or more and less than 70%)

system: redroot pigweed; assay: Test Example 4: herbicidal effect by soil treatment (Table 19, symbol N); assay type: in vivo, redroot pigweed (Amaranthus retroflexus); settings: amount of applied herbicide 320 g/ha
How it was run: as §1

SMILES	herbicidal effect rating, N: redroot pigweed
COc1ccc(F)cc1-c1sc2ccccc2c1-c1c(O)c(C)nn(C)c1=O [1-058]	2 (Herbicidal rate of 20% or more and less than 40%)

system: Italian ryegrass; assay: Test Example 4: herbicidal effect by soil treatment (Table 19, symbol K); assay type: in vivo, Italian ryegrass (Lolium multiflorum); settings: amount of applied herbicide 320 g/ha
How it was run: as §1

SMILES	herbicidal effect rating, K: Italian ryegrass
COc1ccc(F)cc1-c1sc2ccccc2c1-c1c(O)c(C)nn(C)c1=O [1-058]	0 (Herbicidal rate of 5% or less (almost no effect))

system: redroot pigweed; assay: Test Example 5: herbicidal effect by foliage application, plastic box (Table 20, symbol N); assay type: in vivo, redroot pigweed (Amaranthus retroflexus); settings: foliage application, 320 g/ha, three weeks after application
How it was run: as §2

SMILES	herbicidal effect grade, N: redroot pigweed
COc1ccc(F)cc1-c1sc2ccccc2c1-c1c(O)c(C)nn(C)c1=O [1-058]	2 (Herbicidal rate of 20% or more and less than 40%)

system: Italian ryegrass; assay: Test Example 5: herbicidal effect by foliage application, plastic box (Table 20, symbol K); assay type: in vivo, Italian ryegrass (Lolium multiflorum); settings: foliage application, 320 g/ha, three weeks after application
How it was run: as §2

SMILES	herbicidal effect grade, K: Italian ryegrass
COc1ccc(F)cc1-c1sc2ccccc2c1-c1c(O)c(C)nn(C)c1=O [1-058]	4 (Herbicidal rate of 70% or more and less than 90%)

system: lambsquarters; assay: Test Example 5: herbicidal effect by foliage application, plastic box (Table 20, symbol O); assay type: in vivo, lambsquarters (Chenopodium album); settings: foliage application, 320 g/ha, three weeks after application
How it was run: as §2

SMILES	herbicidal effect grade, O: lambsquarters
COc1ccc(F)cc1-c1sc2ccccc2c1-c1c(O)c(C)nn(C)c1=O [1-058]	0 (Herbicidal rate of 5% or less (almost no effect))

system: wild oat; assay: Test Example 5: herbicidal effect by foliage application, plastic box (Table 20, symbol I); assay type: in vivo, wild oat (Avena fatua); settings: foliage application, 320 g/ha, three weeks after application
How it was run: as §2

SMILES	herbicidal effect grade, I: wild oat
COc1ccc(F)cc1-c1sc2ccccc2c1-c1c(O)c(C)nn(C)c1=O [1-058]	1 (Herbicidal rate of 5% or more and less than 20%)

system: chickweed; assay: Test Example 5: herbicidal effect by foliage application, plastic box (Table 20, symbol P); assay type: in vivo, common chickweed (Stellaria media); settings: foliage application, 320 g/ha, three weeks after application
How it was run: as §2

SMILES	herbicidal effect grade, P: chickweed
COc1ccc(F)cc1-c1sc2ccccc2c1-c1c(O)c(C)nn(C)c1=O [1-058]	5 (Herbicidal rate of 90% or more (almost completely withered))

system: blackgrass; assay: Test Example 5: herbicidal effect by foliage application, plastic box (Table 20, symbol J); assay type: in vivo, blackgrass (Alopecurus myosuroides); settings: foliage application, 320 g/ha, three weeks after application
How it was run: as §2

SMILES	herbicidal effect grade, J: blackgrass
COc1ccc(F)cc1-c1sc2ccccc2c1-c1c(O)c(C)nn(C)c1=O [1-058]	4 (Herbicidal rate of 70% or more and less than 90%)

system: southern crabgrass; assay: Test Example 5: herbicidal effect by foliage application, plastic box (Table 20, symbol F); assay type: in vivo, southern crabgrass (Digitaria ciliaris); settings: foliage application, 320 g/ha, three weeks after application
How it was run: as §2

SMILES	herbicidal effect grade, F: southern crabgrass
COc1ccc(F)cc1-c1sc2ccccc2c1-c1c(O)c(C)nn(C)c1=O [1-058]	3 (Herbicidal rate of 40% or more and less than 70%)

system: windgrass; assay: Test Example 5: herbicidal effect by foliage application, plastic box (Table 20, symbol L); assay type: in vivo, windgrass (Apera spica-venti); settings: foliage application, 320 g/ha, three weeks after application
How it was run: as §2

SMILES	herbicidal effect grade, L: windgrass
COc1ccc(F)cc1-c1sc2ccccc2c1-c1c(O)c(C)nn(C)c1=O [1-058]	4 (Herbicidal rate of 70% or more and less than 90%)

system: blackgrass; assay: Test Example 4: herbicidal effect by soil treatment (Table 19, symbol J); assay type: in vivo, blackgrass (Alopecurus myosuroides); settings: amount of applied herbicide 320 g/ha
How it was run: as §1

SMILES	herbicidal effect rating, J: blackgrass
COc1ccc(F)cc1-c1sc2ccccc2c1-c1c(O)c(C)nn(C)c1=O [1-058]	2 (Herbicidal rate of 20% or more and less than 40%)

system: green foxtail; assay: Test Example 5: herbicidal effect by foliage application, plastic box (Table 20, symbol G); assay type: in vivo, green foxtail (Setaria viridis); settings: foliage application, 320 g/ha, three weeks after application
How it was run: as §2

SMILES	herbicidal effect grade, G: green foxtail
COc1ccc(F)cc1-c1sc2ccccc2c1-c1c(O)c(C)nn(C)c1=O [1-058]	4 (Herbicidal rate of 70% or more and less than 90%)

system: barnyard grass; assay: Test Example 4: herbicidal effect by soil treatment (Table 19, symbol H); assay type: in vivo, barnyard grass (Echinochloa crus-galli); settings: amount of applied herbicide 320 g/ha
How it was run: as §1

SMILES	herbicidal effect rating, H: barnyard grass
COc1ccc(F)cc1-c1sc2ccccc2c1-c1c(O)c(C)nn(C)c1=O [1-058]	3 (Herbicidal rate of 40% or more and less than 70%)

system: barnyard grass; assay: Test Example 5: herbicidal effect by foliage application, plastic box (Table 20, symbol H); assay type: in vivo, barnyard grass (Echinochloa crus-galli); settings: foliage application, 320 g/ha, three weeks after application
How it was run: as §2

SMILES	herbicidal effect grade, H: barnyard grass
COc1ccc(F)cc1-c1sc2ccccc2c1-c1c(O)c(C)nn(C)c1=O [1-058]	3 (Herbicidal rate of 40% or more and less than 70%)

system: rice flat sedge; assay: Test Example 3: herbicidal effect by foliage application, Wagner pot (Table 18, symbol E); assay type: in vivo, rice flat sedge (Cyperus iria); settings: 320 g/ha
How it was run: as §3

SMILES	herbicidal effect on E (rice flat sedge), rating 0-5
COc1ccc(F)cc1-c1sc2ccccc2c1-c1c(O)c(C)nn(C)c1=O [1-058]	5 (Herbicidal rate of 90% or more (almost completely withered))

system: green foxtail; assay: Test Example 4: herbicidal effect by soil treatment (Table 19, symbol G); assay type: in vivo, green foxtail (Setaria viridis); settings: amount of applied herbicide 320 g/ha
How it was run: as §1

SMILES	herbicidal effect rating, G: green foxtail
COc1ccc(F)cc1-c1sc2ccccc2c1-c1c(O)c(C)nn(C)c1=O [1-058]	5 (Herbicidal rate of 90% or more (almost completely withered))

system: southern crabgrass; assay: Test Example 4: herbicidal effect by soil treatment (Table 19, symbol F); assay type: in vivo, southern crabgrass (Digitaria ciliaris); settings: amount of applied herbicide 320 g/ha
How it was run: as §1

SMILES	herbicidal effect rating, F: southern crabgrass
COc1ccc(F)cc1-c1sc2ccccc2c1-c1c(O)c(C)nn(C)c1=O [1-058]	2 (Herbicidal rate of 20% or more and less than 40%)

system: persian speedwell; assay: Test Example 5: herbicidal effect by foliage application, plastic box (Table 20, symbol R); assay type: in vivo, Persian speedwell (Veronica persica); settings: foliage application, 320 g/ha, three weeks after application
How it was run: as §2

SMILES	herbicidal effect grade, R: persian speedwell
COc1ccc(F)cc1-c1sc2ccccc2c1-c1c(O)c(C)nn(C)c1=O [1-058]	4 (Herbicidal rate of 70% or more and less than 90%)

system: wild oat; assay: Test Example 4: herbicidal effect by soil treatment (Table 19, symbol I); assay type: in vivo, wild oat (Avena fatua); settings: amount of applied herbicide 320 g/ha
How it was run: as §1

SMILES	herbicidal effect rating, I: wild oat
COc1ccc(F)cc1-c1sc2ccccc2c1-c1c(O)c(C)nn(C)c1=O [1-058]	1 (Herbicidal rate of 5% or more and less than 20%)

system: chickweed; assay: Test Example 4: herbicidal effect by soil treatment (Table 19, symbol P); assay type: in vivo, common chickweed (Stellaria media); settings: amount of applied herbicide 320 g/ha
How it was run: as §1

SMILES	herbicidal effect rating, P: chickweed
COc1ccc(F)cc1-c1sc2ccccc2c1-c1c(O)c(C)nn(C)c1=O [1-058]	5 (Herbicidal rate of 90% or more (almost completely withered))

system: barnyard grass; assay: Test Example 3: herbicidal effect by foliage application, Wagner pot (Table 18, symbol H); assay type: in vivo, barnyard grass (Echinochloa crus-galli); settings: 320 g/ha
How it was run: as §3

SMILES	herbicidal effect on H (barnyard grass), rating 0-5
COc1ccc(F)cc1-c1sc2ccccc2c1-c1c(O)c(C)nn(C)c1=O [1-058]	4 (Herbicidal rate of 70% or more and less than 90%)

system: lambsquarters; assay: Test Example 4: herbicidal effect by soil treatment (Table 19, symbol O); assay type: in vivo, lambsquarters (Chenopodium album); settings: amount of applied herbicide 320 g/ha
How it was run: as §1

SMILES	herbicidal effect rating, O: lambsquarters
COc1ccc(F)cc1-c1sc2ccccc2c1-c1c(O)c(C)nn(C)c1=O [1-058]	3 (Herbicidal rate of 40% or more and less than 70%)

system: persian speedwell; assay: Test Example 4: herbicidal effect by soil treatment (Table 19, symbol R); assay type: in vivo, Persian speedwell (Veronica persica); settings: amount of applied herbicide 320 g/ha
How it was run: as §1

SMILES	herbicidal effect rating, R: persian speedwell
COc1ccc(F)cc1-c1sc2ccccc2c1-c1c(O)c(C)nn(C)c1=O [1-058]	4 (Herbicidal rate of 70% or more and less than 90%)

— US20230085307A1, “PYRIDAZINONE COMPOUND AND HERBICIDE” (NISSAN CHEMICAL CORPORATION, priority 2019, published 2023)
